Laboratory results taken from PubChem BioAssay AID1963429 (Molecular Pharmacology Branch, DTP, NCI, 2024).
Where “and” joins values, the source holds several entries; their conditions need not be identical. Equal values may be shown once.

System: 126254-015-R-J1-PDC complex spheroid growth, % test/control
Experiment: Anticancer human tumor 126254-015-R-J1-PDC patient-derived soft tissue sarcoma cell line growth inhibition [Asc]
Details: for viability, T/C: stronger effect = lower value
How it was run: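 Stromal components (HUVEC and hMSC) are co-assembled with the cancer cells into multicellular spheroids. Drugs are then added singly or paired, at concentrations falling by half-log increments from a clinically achievable maximum, capped at 10 microM without known Cmax.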

[1] = curve of first compound, second compound 0.1 µM
[2] = curve of first compound, second compound 0.316 µM
[3] = curve of first compound, second compound 1 µM
[4] = curve of first compound, second compound 3.16 µM
[5] = curve of first compound, second compound 10 µM
[6] = second compound 0.1 µM, first compound 0.0316 µM
[7] = second compound 0.1 µM, first compound 0.1 µM
[8] = second compound 0.1 µM, first compound 0.316 µM
[9] = second compound 0.1 µM, first compound 1 µM
[10] = second compound 0.1 µM, first compound 3.16 µM
[11] = second compound 0.1 µM, first compound 10 µM
[12] = second compound 0.316 µM, first compound 0.0316 µM
[13] = second compound 0.316 µM, first compound 0.1 µM
[14] = second compound 0.316 µM, first compound 0.316 µM
[15] = second compound 0.316 µM, first compound 1 µM
[16] = second compound 0.316 µM, first compound 3.16 µM
[17] = second compound 0.316 µM, first compound 10 µM
[18] = second compound 1 µM, first compound 0.0316 µM
[19] = second compound 1 µM, first compound 0.1 µM
[20] = second compound 1 µM, first compound 0.316 µM
[21] = second compound 1 µM, first compound 1 µM
[22] = second compound 1 µM, first compound 3.16 µM
[23] = second compound 1 µM, first compound 10 µM
[24] = second compound 3.16 µM, first compound 0.0316 µM
[25] = second compound 3.16 µM, first compound 0.1 µM
[26] = second compound 3.16 µM, first compound 0.316 µM
[27] = second compound 3.16 µM, first compound 1 µM
[28] = second compound 3.16 µM, first compound 3.16 µM
[29] = second compound 3.16 µM, first compound 10 µM
[30] = second compound 10 µM, first compound 0.0316 µM
[31] = second compound 10 µM, first compound 0.1 µM
[32] = second compound 10 µM, first compound 0.316 µM
[33] = second compound 10 µM, first compound 1 µM
[34] = second compound 10 µM, first compound 3.16 µM
[35] = second compound 10 µM, first compound 10 µM
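Also: spheroids exposed to compound for seven days.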
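For viability, T/C in this document: 100% = DMSO vehicle control wells.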

C=CC(=O)N1CCN(c2nc(=O)n(-c3c(C)ccnc3C(C)C)c3nc(-c4c(O)cccc4F)c(F)cc23)C(C)C1 (centres undefined) + Cc1c(S(C)(=O)=O)c(-c2cc(F)cc(N3CCN(c4ccc(NS(=O)(=O)c5ccc(NC(CCN6CCC(C(=O)OCCCP(=O)(O)O)CC6)CSc6ccccc6)c(S(=O)(=O)C(F)(F)F)c5)cc4)CC3)c2)c(-c2ccc(Cl)cc2)n1C(C)C
IC50 [1]: > 10 µM
IC50 [2]: > 10 µM
IC50 [3]: > 10 µM
IC50 [4]: > 10 µM
IC50 [5]: > 10 µM
viability, T/C [6]: 89.8%
viability, T/C [7]: 89.4%
viability, T/C [8]: 95.8%
viability, T/C [9]: 103%
viability, T/C [10]: 101%
viability, T/C [11]: 76.3%
viability, T/C [12]: 90.5%
viability, T/C [13]: 86.2%
viability, T/C [14]: 96.5%
viability, T/C [15]: 91.2%
viability, T/C [16]: 107%
viability, T/C [17]: 84.1%
viability, T/C [18]: 93.9%
viability, T/C [19]: 89%
viability, T/C [20]: 91.2%
viability, T/C [21]: 93%
viability, T/C [22]: 92.8%
viability, T/C [23]: 77.6%
viability, T/C [24]: 83.8%
viability, T/C [25]: 91.5%
viability, T/C [26]: 90.9%
viability, T/C [27]: 93.2%
viability, T/C [28]: 101%
viability, T/C [29]: 78.1%
viability, T/C [30]: 91.3%
viability, T/C [31]: 94.1%
viability, T/C [32]: 105%
viability, T/C [33]: 87%
viability, T/C [34]: 91.7%
viability, T/C [35]: 81.6%

NC1CCC(NC2CC2c2ccccc2)CC1 (centres undefined) + CCN1C(C(=O)NC23CCC(C(=O)O)(CC2)CC3)C(c2cccc(Cl)c2F)C2(C(=O)Nc3cc(Cl)ccc32)C12CCCCC2
IC50 (curve of first compound, second compound 0.03 µM): > 0.1 µM
IC50 (curve of first compound, second compound 0.0949 µM): > 0.1 µM
IC50 (curve of first compound, second compound 0.3 µM): > 0.1 µM
IC50 (curve of first compound, second compound 0.949 µM): > 0.1 µM
IC50 (curve of first compound, second compound 3 µM): > 0.1 µM
viability, T/C (second compound 0.03 µM, first compound 0.000316 µM): 94.7%
viability, T/C (second compound 0.03 µM, first compound 0.001 µM): 97.4%
viability, T/C (second compound 0.03 µM, first compound 0.00316 µM): 99.1%
viability, T/C (second compound 0.03 µM, first compound 0.01 µM): 93.1%
viability, T/C (second compound 0.03 µM, first compound 0.0316 µM): 79.7%
viability, T/C (second compound 0.03 µM, first compound 0.1 µM): 83.1%
viability, T/C (second compound 0.0949 µM, first compound 0.000316 µM): 85.6%
viability, T/C (second compound 0.0949 µM, first compound 0.001 µM): 81%
viability, T/C (second compound 0.0949 µM, first compound 0.00316 µM): 93%
viability, T/C (second compound 0.0949 µM, first compound 0.01 µM): 83.5%
viability, T/C (second compound 0.0949 µM, first compound 0.0316 µM): 75.5%
viability, T/C (second compound 0.0949 µM, first compound 0.1 µM): 85.9%
viability, T/C (second compound 0.3 µM, first compound 0.000316 µM): 87.3%
viability, T/C (second compound 0.3 µM, first compound 0.001 µM): 89.4%
viability, T/C (second compound 0.3 µM, first compound 0.00316 µM): 82.7%
viability, T/C (second compound 0.3 µM, first compound 0.01 µM): 79.7%
viability, T/C (second compound 0.3 µM, first compound 0.0316 µM): 78.3%
viability, T/C (second compound 0.3 µM, first compound 0.1 µM): 88.4%
viability, T/C (second compound 0.949 µM, first compound 0.000316 µM): 90.1%
viability, T/C (second compound 0.949 µM, first compound 0.001 µM): 92.3%
viability, T/C (second compound 0.949 µM, first compound 0.00316 µM): 97%
viability, T/C (second compound 0.949 µM, first compound 0.01 µM): 82.5%
viability, T/C (second compound 0.949 µM, first compound 0.0316 µM): 81.5%
viability, T/C (second compound 0.949 µM, first compound 0.1 µM): 83.7%
viability, T/C (second compound 3 µM, first compound 0.000316 µM): 90%
viability, T/C (second compound 3 µM, first compound 0.001 µM): 96.9%
viability, T/C (second compound 3 µM, first compound 0.00316 µM): 78.1%
viability, T/C (second compound 3 µM, first compound 0.01 µM): 74.5%
viability, T/C (second compound 3 µM, first compound 0.0316 µM): 84.1%
viability, T/C (second compound 3 µM, first compound 0.1 µM): 85.2%

CCN1CCN(Cc2ccc(Nc3ncc(F)c(-c4cc(F)c5nc(C)n(C(C)C)c5c4)n3)nc2)CC1
viability, T/C (compound 0.00316 µM): 99.2% and 102% (2×)
viability, T/C (compound 0.01 µM): 104% and 97% and 96.8%
viability, T/C (compound 0.0316 µM): 109% (2×) and 99%
viability, T/C (compound 0.1 µM): 94.1% and 103% and 115%
viability, T/C (compound 0.316 µM): 114% and 110% and 112%
viability, T/C (compound 1 µM): 110% and 102% and 112%
IC50 (curve of compound): > 1 µM

Cc1nc(N2CCC3(CC2)COC(C)C3N)c(CO)nc1Sc1ccnc(N)c1Cl (centres undefined)
viability, T/C (compound 0.00949 µM): 94.9% and 93.9% and 98.2%
viability, T/C (compound 0.03 µM): 103% and 83.5% and 93.7%
viability, T/C (compound 0.0949 µM): 86.2% and 84% and 84.9%
viability, T/C (compound 0.3 µM): 84.7% and 73.4% and 69.1%
viability, T/C (compound 0.949 µM): 76.9% and 51.7% and 54.3%
viability, T/C (compound 3 µM): 50.1% and 41.1% and 43.9%
IC50 (curve of compound): > 3 µM and 1.26 µM and 1.51 µM

O=C(c1cc(Cc2n[nH]c(=O)c3ccccc23)ccc1F)N1CCN(C(=O)C2CC2)CC1 + Cc1c(S(C)(=O)=O)c(-c2cc(F)cc(N3CCN(c4ccc(NS(=O)(=O)c5ccc(NC(CCN6CCC(C(=O)OCCCP(=O)(O)O)CC6)CSc6ccccc6)c(S(=O)(=O)C(F)(F)F)c5)cc4)CC3)c2)c(-c2ccc(Cl)cc2)n1C(C)C
IC50 [1]: > 10 µM
IC50 [2]: 9.75 µM
IC50 [3]: 7.04 µM
IC50 [4]: 5.75 µM
IC50 [5]: > 10 µM
viability, T/C [6]: 77.8%
viability, T/C [7]: 81.8%
viability, T/C [8]: 80%
viability, T/C [9]: 71.8%
viability, T/C [10]: 66.8%
viability, T/C [11]: 56.2%
viability, T/C [12]: 87.3%
viability, T/C [13]: 79.3%
viability, T/C [14]: 80.2%
viability, T/C [15]: 67.6%
viability, T/C [16]: 73.9%
viability, T/C [17]: 47.8%
viability, T/C [18]: 77%
viability, T/C [19]: 72.8%
viability, T/C [20]: 65.7%
viability, T/C [21]: 71.3%
viability, T/C [22]: 58.1%
viability, T/C [23]: 45.8%
viability, T/C [24]: 75%
viability, T/C [25]: 68.7%
viability, T/C [26]: 74.5%
viability, T/C [27]: 65.5%
viability, T/C [28]: 59.2%
viability, T/C [29]: 41.8%
viability, T/C [30]: 75.9%
viability, T/C [31]: 80.5%
viability, T/C [32]: 72.1%
viability, T/C [33]: 70.6%
viability, T/C [34]: 60.6%
viability, T/C [35]: 55.3%
